# In US10478421B1, “Sortilin binding compounds, formulations, and uses thereof” (University of Florida, priority 2016, dated 2019):
# Values joined by “and” are separate entries in the source; they are usually repeats but may differ in a detail not shown here. Identical values can stand only once.
# What was measured:
# McA cells = assay: LDH release into medium (viability of McA cells); type: cell-based, rat; conditions: incubation with compound (10 μM cpd984, 18 h)
# PCSK9 = assay: Cellular PCSK9 by immunoblot in McA cells; type: cell-based, rat; conditions: 10 μM, 18 h, 1% BSA/DMEM
# Experimental: McA cells were incubated in 1% BSA/DMEM with DMSO, 541 (10 μM) or 984 (10 μM) for 18 h. Cellular proteins were extracted and analyzed by IB for LDLR (LS-C146979, 1:2000) (FIG. 5A) or PCSK9 (Ab125251, 1:2000) (FIG. 5B) using HRP-linked secondary antibody and ECL detection. Loading controls included β-ACTIN (Rockland ph600-401-886) and GAPDH (cb1001mAb (6C5). Band intensities were measured using ChemiDocXRS+ system and evaluated using ImageLab 5.1 software (BioRad). Results are average of triplicates ±S.D. PCSK9 is a known ligand for sortilin where sortilin acts as a chaperone for PCSK9 secretion.
# hsortilin [1] = biological target: T1, hsortilin (Homo sapiens, UniProt Q99523); assay: SPR binding of 541 and 984 to hsortilin (Example 4)
# T1 sequence (Q99523 78-831): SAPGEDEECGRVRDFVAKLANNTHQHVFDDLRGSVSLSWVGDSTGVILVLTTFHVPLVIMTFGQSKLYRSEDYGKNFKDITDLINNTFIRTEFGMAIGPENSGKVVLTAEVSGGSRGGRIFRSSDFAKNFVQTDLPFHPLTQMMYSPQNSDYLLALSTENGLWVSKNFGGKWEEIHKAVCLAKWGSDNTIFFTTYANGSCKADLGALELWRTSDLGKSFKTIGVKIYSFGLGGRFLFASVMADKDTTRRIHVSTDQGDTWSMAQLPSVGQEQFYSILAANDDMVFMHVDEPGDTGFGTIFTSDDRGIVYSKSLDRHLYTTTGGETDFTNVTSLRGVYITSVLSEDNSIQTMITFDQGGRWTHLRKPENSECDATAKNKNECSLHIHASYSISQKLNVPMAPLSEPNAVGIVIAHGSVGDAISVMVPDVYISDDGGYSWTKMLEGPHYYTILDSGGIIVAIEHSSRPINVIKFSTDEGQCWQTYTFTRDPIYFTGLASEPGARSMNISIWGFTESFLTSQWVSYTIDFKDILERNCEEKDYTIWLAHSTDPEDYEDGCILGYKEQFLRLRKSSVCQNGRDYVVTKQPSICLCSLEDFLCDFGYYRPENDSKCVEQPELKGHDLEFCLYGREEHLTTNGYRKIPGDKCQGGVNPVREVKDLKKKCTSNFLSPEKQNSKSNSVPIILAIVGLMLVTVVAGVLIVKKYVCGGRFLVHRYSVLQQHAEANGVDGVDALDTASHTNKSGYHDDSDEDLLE
# Experimental: (§1) Due to inherent fluorescence of 541 small molecule, thermophoresis was performed in two different buffer conditions (PBS n=3 and MST n=2) and at two sets of concentration ranges. […] SPR indicates a high and low affinity binding site of cpd984 to human sortilin of hsortilin with Kd of about 200 μM and about 20 nM.
# McArdle rat hepatocytes = assay: VLDL-apo E secretion by McArdle rat hepatocytes (slot blotting); type: cell-based; conditions: 0.1-25 μM, 14-18 h
# Experimental: McArdle rat hepatocytes were incubated with five media concentrations 0 (no cpd), 1 (0.1 μM), 2 (1 μM), 3 (10 μM) and 4 (25 μM) of cpd984 (FIG. 7A), cpd541 (FIG. 7B), or with a combination of both compounds (FIG. 7C) at indicated concentrations. Hepatocytes were incubated overnight (14-18 h) and media were collected and VLDL-B100 and VLDL-apo E were detected by slot blotting as described above. An anti-rat apoE antibody was used for measurement of VLDL-apo E secretion. Results are the average of triplicate analysis in one study.
# hsortilin [2] = biological target: T2, hsortilin (Homo sapiens, UniProt Q99523); assay: Surface plasmon resonance of NT and cpd984 on immobilized hsortilin (Ni-NTA chip, Example 1); type: binding
# T2 construct: Human sortilin (hsortilin) (Ser78-Asn755) with C-terminal 6-His tag; purchased R&D Systems, Inc. (Minneapolis, Minn.)
# T2 sequence (Q99523 78-755): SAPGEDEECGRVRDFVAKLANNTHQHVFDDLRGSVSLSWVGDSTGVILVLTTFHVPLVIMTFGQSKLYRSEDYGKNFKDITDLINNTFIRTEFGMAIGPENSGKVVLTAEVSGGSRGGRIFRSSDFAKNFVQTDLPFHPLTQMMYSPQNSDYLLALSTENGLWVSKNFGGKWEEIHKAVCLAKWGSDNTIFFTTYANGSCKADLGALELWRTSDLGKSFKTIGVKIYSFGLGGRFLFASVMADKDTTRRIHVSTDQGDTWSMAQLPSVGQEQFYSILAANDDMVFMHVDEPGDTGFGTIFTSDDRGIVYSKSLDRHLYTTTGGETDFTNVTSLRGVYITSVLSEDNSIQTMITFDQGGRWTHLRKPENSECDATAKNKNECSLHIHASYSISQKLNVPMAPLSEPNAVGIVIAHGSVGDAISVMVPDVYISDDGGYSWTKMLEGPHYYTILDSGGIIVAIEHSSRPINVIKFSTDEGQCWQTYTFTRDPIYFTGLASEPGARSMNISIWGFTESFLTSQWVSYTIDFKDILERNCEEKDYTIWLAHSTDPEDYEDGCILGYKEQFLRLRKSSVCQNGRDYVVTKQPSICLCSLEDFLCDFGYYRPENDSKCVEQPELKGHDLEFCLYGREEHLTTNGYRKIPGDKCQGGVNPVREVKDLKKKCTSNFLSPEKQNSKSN
# Experimental: Surface plasmon resonance measurements were performed on a Biacore T200 instrument equipped with Ni-NTA sensor chips with ˜6800 response units (RU) for hsortilin covalently immobilized to the surface. HBS-DMSO running buffer (10 mM Hepes pH 7.4, 150 mM NaCl, 1% DMSO) was used at a flow rate of 30 μl/min and injections performed with times for association of 90 s, and dissociation of 300 s, followed by injection of buffer to regenerate the hsortilin surface. Binding was expressed in relative RU; the difference in response between the immobilized protein flow cell and the corresponding control flow cell.
# human sortilin = biological target: T3, human sortilin (Homo sapiens, UniProt Q99523); assay: Thermophoresis binding to human sortilin
# T3 sequence (Q99523 78-831): T1 sequence (Q99523 78-831)
# Experimental: as §1
SMILES,LDH release / toxicity (McA cells),effect on cellular PCSK9 (PCSK9),Kd (hsortilin [1]; two trials),effect on VLDL-apoE secretion (McArdle rat hepatocytes),LDH release / toxicity (McA cells; listed as 984),SPR binding response (hsortilin [2]; 100 nM NT injected with 500 μM cpd984),"averaged RU of NT co-injected with 984 (hsortilin [2]; 100 nM NT with 500 μM cpd984, average)","increase in binding to hsortilin for co-injected NT over the combination of NT and cpd984 alone (hsortilin [2]; 100 nM NT, 500 μM cpd984)",SPR binding response (hsortilin [2]; 500 μM cpd984 alone),RU of 500 μM cpd984 and 100 nM NT (sum of separate injections) (hsortilin [2]; sum of averaged responses injected alone),Kd (hsortilin [1]; high affinity binding site),Kd (hsortilin [1]; low affinity binding site),Kd (human sortilin; high affinity binding range),Kd (human sortilin; low affinity binding range)
CC(NC(=O)c1ccccc1NCC(=O)O)c1ccccc1 (centres unmarked) [cpd541],non-toxic,no biological difference,7.5 µM,decreases,,,,,,,,,,
"CN1CCC[C@H]1C(=O)Nc1cccc(NC(=O)CCc2ccccc2)c1 [cpd984, (2S)-1-methyl-N-{3-[(3-phenylpropanoyl)-amino]phenyl} pyrrolidine-2-carboxamide]",no significant release of LDH,accumulation of cellular PCSK9,,increases,non-toxic,64.1 RU and 64.7 RU,64.4 RU,14.5 RU,45.1 RU and 44.8 RU,50.0 RU,~0.02 µM,~200 µM,0.007 µM,100 to 300 µM
